Results published in ChEMBL document CHEMBL3137667, “[Drug-induced liver injury; fourteenth updated edition of the bibliographic database of liver injuries and related drugs]” (Gastroenterol Clin Biol, 2004).
Where a SMILES comes first, the peptide text is derived from it. Bridges are numbered along the chain shown (N, C = ends). [ ]: non-standard residue; d: D form. The star is where a group is joined. Threoninol(2S,3R) = C[C@@H](O)[C@H](CO)N*

How the values were obtained:
[1] = Highest frequency of moderate liver toxicity observed during clinical trials, expressed as a percentage. [column '% BIOL' in source]; conditions: human
[2] = Highest frequency of acute liver toxicity observed during clinical trials, expressed as a percentage. [column '% AIGUE' in source]; conditions: human
[3] = Presence of at least one case with successful reintroduction. [column 'REINT' in source]; conditions: human
[4] = Comments (NB not yet translated). [column 'COMMENTAIRES' in source]; conditions: human
[5] = Times to onset, minimal and maximal, observed in the indexed observations. [column 'DELAI' in source]; conditions: human
[6] = Proposed mechanism(s) of liver damage. [column 'MEC' in source]; conditions: human
[7] = human, serum
[8] = human, serum; remark: listed apart in the source
[9] = human
[10] = human; remark: listed apart in the source
[11] = human; remark: listed apart in the source
[12] = human, serum, 4383 h
[13] = human; remark: listed apart in the source
[14] = human; remark: listed apart in the source
[15] = human; remark: listed apart in the source
[16] = human; remark: listed apart in the source
[17] = human; remark: listed apart in the source
[18] = human; remark: listed apart in the source
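Throughout, for Hepatotoxicity (association with vascular disease): count of indexed literature references reporting vascular liver injury in humans, e.g. peliosis hepatitis, hepatic veno-occlusive disease or Budd-Chiari syndrome.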
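Throughout, for Hepatotoxicity (benign tumour): value is a count of indexed literature references citing a benign tumour confirmed by histopathology.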
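Throughout, for Hepatotoxicity (choleostasis): human cholestatic liver injury, shown by histopathology or by peak ALT or AST elevation over alkaline phosphatase ratio below 2, value counts indexed literature reports.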
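Throughout, for Hepatotoxicity (chronic liver disease): chronic liver injury confirmed by histopathology or persistently raised serum aminotransferase activity beyond 6 months, value given as the count of indexed literature references.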
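Throughout, for Hepatotoxicity (cirrhosis): value is a count of indexed literature references reporting cirrhosis confirmed by histopathology.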
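Throughout, for Hepatotoxicity (cytolytic): human cytolytic liver injury, shown by histopathology or by a ratio above 5 of peak ALT or AST elevation to alkaline phosphatase elevation, value counts indexed references.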
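Throughout, for Hepatotoxicity (granulomatous hepatitis): value is a count of indexed literature references reporting granulomatous liver disease confirmed by histopathology.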
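Throughout, for Hepatotoxicity (malignant tumour): malignant tumour confirmed by histopathology, value gives the count of indexed literature references reporting it.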
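Throughout, for Hepatotoxicity (severe hepatitis): human clinical data: severe hepatitis, meaning potentially life-threatening liver failure or clinically observed cases, the value counts how many indexed literature references report it.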
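Throughout, for Hepatotoxicity (steatosis): steatosis confirmed by histopathology, value is the count of indexed references.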

| SMILES | Hepatotoxicity (moderate) [1] [%] | Hepatotoxicity (acute) [2] [%] | Hepatotoxicity (successful reintroduction) [3] | Hepatotoxicity (comment) [4] | Hepatotoxicity (time to onset) [5] | Hepatotoxicity (mechanism) [6] | Hepatotoxicity (moderate) [7] | Hepatotoxicity (acute) [8] | Hepatotoxicity (cytolytic) [9] | Hepatotoxicity (choleostasis) [10] | Hepatotoxicity (severe hepatitis) [11] | Hepatotoxicity (chronic liver disease) [12] | Hepatotoxicity (cirrhosis) [13] | Hepatotoxicity (granulomatous hepatitis) [14] | Hepatotoxicity (association with vascular disease) [15] | Hepatotoxicity (steatosis) [16] | Hepatotoxicity (malignant tumour) [17] | Hepatotoxicity (benign tumour) [18] | other results |
| --- | --- | --- | --- | --- | --- | --- | --- | --- | --- | --- | --- | --- | --- | --- | --- | --- | --- | --- | --- |
| CC1=C(CC(=O)O)c2cc(F)ccc2/C1=C\c1ccc([S+](C)[O-])cc1 (stereo not drawn) | 14.9 | 0.2 | yes | LITHIASE CHOLESTASE_PROLONGEE CHOLANGITE | 1 day - 1.5 years | Allergic | 25 | 29 | 12 | 22 | 3 | 0 | 0 | 0 | 0 | 4 | 0 | 0 | – |
| CCC[N+]12[C@H](O)[C@@H](CC)[C@@H]3C[C@H]1[C@@H]1N(C)c4ccccc4[C@]14C[C@H]2C3[C@H]4O (stereo partly drawn) | 0 | 0 | yes | RC/QUINIDINE CHOLESTASE_PROLONGEE CHOLANGITE | 3 days - 4 months | Allergic | 0 | 15 | 3 | 14 | 0 | 2 | 0 | 2 | 0 | 0 | 0 | 0 | – |
| CC1=C(/C=C/C(C)=C/C=C/C(C)=C/CO)C(C)(C)CCC1.O=C(O)Cc1cc(I)c(Oc2ccc(O)c(I)c2)c(I)c1 | – | – | yes | AC_ANTI-N | 2 weeks - 9 years | – | 0 | 7 | – | – | – | 1 | 1 | – | 0 | 0 | 0 | 0 | Hepatotoxicity (moderate) ([1]; Liver): 0%; Hepatotoxicity (acute) ([2]; Liver): 0%; Hepatotoxicity (mechanism) ([6]; Liver): Allergic; Hepatotoxicity (cytolytic) ([9]; Liver): 7; Hepatotoxicity (choleostasis) ([10]; Liver): 1; Hepatotoxicity (severe hepatitis) ([11]; Liver): 1; Hepatotoxicity (granulomatous hepatitis) ([14]; Liver): 0 |
| C[C@@H](O)[C@H](CO)NC(=O)[C@@H]1CSSC[C@H](NC(=O)[C@H](N)Cc2ccccc2)C(=O)N[C@@H](Cc2ccccc2)C(=O)N[C@H](Cc2c[nH]c3ccccc23)C(=O)N[C@@H](CCCCN)C(=O)N[C@@H]([C@@H](C)O)C(=O)N1 (H-[dF]CF[dW]KTC-{Threoninol(2S,3R)}; disulfide 2-7) | 17.6 | 0 | yes | BOUE_BILIAIRE LITHIASE | 1 day - 14 months | Dose-dependant | 8 | 3 | 3 | 1 | 1 | 0 | 0 | 0 | 0 | 0 | 0 | 0 | – |
| CC(=O)N[C@@H](CS)C(=O)O [ACETYLCYSTEINE] | 0 | 0 | yes | PERICHOLANGITE | 4 days | Dose-dependant | 0 | 1 | 1 | 0 | 0 | 0 | 0 | 0 | 0 | 1 | 0 | 0 | – |
| COc1cc(C)c(/C=C/C(C)=C/C=C/C(C)=C/C(=O)O)c(C)c1C [ACITRETIN] | 30 | 10 | yes | CHOLANGIOLITE CHOLESTASE_PROLONGEE AGGRAVATION_HVA | 1.5 hours - 5 months | Dose-dependant | 16 | 12 | 5 | 1 | 0 | 2 | 1 | 0 | 0 | 0 | 0 | 0 | – |
| CC[C@H]1[C@@H]2C[C@H]3[C@@H]4N(C)c5ccccc5[C@]45C[C@@H]([C@@H]2[C@H]5O)N3[C@@H]1O [AJMALINE] | 0 | 0.1 | yes | CHOLESTASE_PROLONGEE RC/AMIODARONE | 1 day - 4 years | Allergic | 2 | 29 | 6 | 28 | 0 | 1 | 1 | 0 | 0 | 0 | 0 | 0 | – |
| Oc1ncnc2[nH]ncc12 [ALLOPURINOL] | 3.1 | 0.1 | yes | CHOLANGITE RC/METHYLDOPA REACTIVATION_HSV6 | 6 days - 5 years | Allergic | 14 | 47 | 26 | 12 | 12 | 0 | 0 | 13 | 0 | 4 | 0 | 0 | – |
| O=C(O)CCCCCCNC1c2ccccc2CCc2ccccc21 [AMINEPTINE] | 0.6 | 0 | yes | RC/CLOMIPRAMINE | 1 day - 10 months | Allergic, Reactive metabolite | 6 | 20 | 17 | 18 | 0 | 0 | 1 | 0 | 0 | 5 | 0 | 0 | – |
| CC1(C)S[C@@H]2[C@H](NC(=O)[C@H](N)c3ccccc3)C(=O)N2[C@H]1C(=O)O [AMPICILLIN] | 20 | 0 | yes | #CBP CHOLECYSTITE_ACALCULEUSE | 2 days - 2 weeks | Allergic | 7 | 9 | 3 | 4 | 1 | 0 | 0 | 0 | 0 | 0 | 0 | 0 | – |
| CCc1oc2ccccc2c1C(=O)c1ccc(O)cc1 [BENZARONE] | 0 | 0 | yes | AC_ANTI-ML/-N | 2 weeks - 2 years | Allergic | 0 | 5 | 3 | 0 | 2 | 3 | 1 | 0 | 0 | 0 | 0 | 0 | – |
